According to patent US7939098B2, “Compositions and method for transmucosal drug delivery and cryoprotection” (Femina Pharma Incorporated, priority 2002, dated 2011):

Experiments:
[1] = system: porcine buccal mucosa; experiment: Transepithelial transport of [3H]water across porcine buccal mucosa in vitro, continuous flow apparatus; type: in vitro ADME
Method: (§1) Porcine buccal and nasal mucosa (lateral) was obtained at slaughter and utilized within 3 hours of harvest. Tissue samples approximately 8 mm in diameter were mounted between two halves of through-flow mucosal perfusion cells exposing an area of epithelial surface approximately 0.20 cm^2 for transepithelial transport. The chambers were mounted on water-jacketed blocks maintained at 37° C. During the set up period, the exposed epithelial surface was kept moist with phosphate buffered saline (PBS, 0.01M, pH 7.4). The buffer solution was removed by vacuum immediately prior to application of labeled test compound. […] In the receiver compartment, PBS was continuously pumped through the lower chamber (i.e., blood compartment) as a collection fluid at rate of 1.8 mL/hr, which was previously determined to be sufficient to maintain sink conditions in the receiver compartment. This fluid was collected into scintillation vials for 1 or 2 hour intervals over the entire collection period and radioactivity was determined by liquid scintillation counter. Transepithelial flux of the marker solute in the presence of various concentrations of permeation enhancers was calculated at each sampling interval from the relationship: Flux=Q/At where Q is the finite quantity of solute traversing the tissue barrier (dpm) in time t (min); A is the area of epithelial surface exposed in cm^2. […]

[2] = system: porcine nasal mucosa; experiment: Transepithelial transport of [3H]water across porcine nasal mucosa in vitro, continuous flow apparatus; type: in vitro ADME
Method: as §1

[3] = essentially the same amount as i.v.; cited from earlier work
[4] = system: healthy female rabbits; conditions: rabbit, in vivo
Method: A 10 day, repeat dose, vaginal toxicity study was conducted in healthy female rabbits. Three doses and two controls were used. […] Doses of SUPPOCIRE® and SUPPOCIRE® plus ethoxydiglycol were used as controls. The study findings are summarized below.

Row | Structure (SMILES) | increase of mean steady state Kp as compared to control ([1]; 30% (v/v) TRANSCUTOL versus control) [%] | mean steady state Kp of [3H]water ([1]; in the presence of 30% (v/v) TRANSCUTOL, n=7) | increase of mean steady state Kp compared to control PBS ([2]; 15% (v/v) TRANSCUTOL versus control PBS) [%] | mean steady state Kp of [3H]water ([2]; in the presence of 15% (v/v) TRANSCUTOL, n=7) | systemic level after oral administration compared to i.v. administration [3] | NOEL ([4]; female, 10 days) [mg/3 kg rabbit dose] | NOEL, equivalent human dose ([4]; female, 10 days) [mg] | finding on cervix or uterus [4] | one-time human dose extrapolated to be safe [4] [mg] | systemic side effects [4]
1 | CCOCCOCCO [TRANSCUTOL®, diethyleneglycol monoethyl ether] | ~25 | 1.11±0.01×10^−3 cm/min | ~37 | 1.83±0.02×10^−3 cm/min | – | – | – | – | – | –
2 | NCCCC(O)(P(=O)(O)O)P(=O)(O)O [alendronate] | – | – | – | – | below 1% | 0.013 | 0.3 | No erythema, inflammation or erosion | 10 | no systemic side effects
